Earlier results on one sequence are cited in PMC4483627 (Marine Drugs, 2015).

The data set deals with T1, rat nAChR α3β4 (Rattus norvegicus, UniProt P04757+P12392).
T1 construct: expressed in transfected cells; host or cells: Xenopus oocytes injected with cRNA
To be noted: cited from earlier work.

T1 sequence (P04757 26-499 limits assumed): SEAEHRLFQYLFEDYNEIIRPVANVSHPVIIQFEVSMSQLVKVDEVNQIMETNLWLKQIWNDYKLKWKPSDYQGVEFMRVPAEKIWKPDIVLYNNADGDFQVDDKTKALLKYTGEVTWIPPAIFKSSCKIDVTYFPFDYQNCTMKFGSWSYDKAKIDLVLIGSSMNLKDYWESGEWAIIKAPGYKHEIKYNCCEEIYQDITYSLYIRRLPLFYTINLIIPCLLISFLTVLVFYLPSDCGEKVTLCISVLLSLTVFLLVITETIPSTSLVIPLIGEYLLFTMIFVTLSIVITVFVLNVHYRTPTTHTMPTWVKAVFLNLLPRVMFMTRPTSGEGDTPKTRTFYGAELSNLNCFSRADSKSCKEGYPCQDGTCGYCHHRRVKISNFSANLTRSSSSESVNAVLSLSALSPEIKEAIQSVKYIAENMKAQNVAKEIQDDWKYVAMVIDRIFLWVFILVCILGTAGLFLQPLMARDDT
T1 sequence (P12392 21-495 limits assumed): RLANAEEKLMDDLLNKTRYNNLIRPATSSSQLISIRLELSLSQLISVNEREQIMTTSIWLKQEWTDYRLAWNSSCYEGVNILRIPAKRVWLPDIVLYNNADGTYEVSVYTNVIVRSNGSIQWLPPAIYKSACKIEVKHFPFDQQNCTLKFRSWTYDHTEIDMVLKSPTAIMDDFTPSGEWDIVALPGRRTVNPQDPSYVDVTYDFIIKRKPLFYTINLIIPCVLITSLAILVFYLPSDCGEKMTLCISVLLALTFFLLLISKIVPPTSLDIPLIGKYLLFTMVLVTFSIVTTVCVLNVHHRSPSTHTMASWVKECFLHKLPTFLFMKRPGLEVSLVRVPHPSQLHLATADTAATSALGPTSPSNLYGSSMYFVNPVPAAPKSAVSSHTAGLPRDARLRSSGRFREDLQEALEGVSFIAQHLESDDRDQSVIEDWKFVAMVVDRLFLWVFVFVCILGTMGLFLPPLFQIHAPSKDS

Regarding “G CC SHP V C SAMS P I- C * (bicyclic or more) [TxID]”, the IC50 is 12.5 nM.

In general, IC50 refers to the midpoint of a concentration-inhibition curve.
